From US20080305169A1, “Pharmaceutical Compositions Comprising Nitrogen-Containing Fused Ring Coumpounds” (Japan Tobacco Inc., priority 2006, published 2008)

Key:
[1] = Guideline for the management of hyperuricemia and gout (1st Edit.); cited from earlier work
[2] = Evaluation of stability on excipient compatibility, compound C (Experimental Example 11); type: physicochemical; settings: 60° C., 75% RH, 2 weeks
From the text: Evaluation of Stability on Excipient Compatibility
Compound C was physically mixed in various additives shown in Table 48 in a mortar (see Table 48 for mixing ratio), and the obtained mixed powder was placed in a glass sample bottle in a layer thickness of about 5 mm.
The glass sample bottle was placed in a desiccator humidity-conditioned to 75% RH (relative humidity) without capping, and the desiccator containing the bottle was preserved for 2 weeks in a constant-temperature equipment set to 60° C.
After the completion of the preservation, a 60 v/v % aqueous acetonitrile solution was added to a concentration of compound C of 0.5 mg/mL, and the mixture was subjected to a dissolution treatment by ultrasonication and a filtration treatment. Each sample was measured by high performance liquid chromatography, and the stability was evaluated based on the changes from the start of preservation.

Row | Structure (SMILES) | dissolution concentration of uric acid in plasma [1] | stability when compounded with an additive ([2]; compounded with an additive other than calcium silicate) | HPLC peak of decomposition product ([2]; when calcium silicate is added)
1 | O=c1[nH]c(=O)c2[nH]c(=O)[nH]c2[nH]1 [uric acid] | 7 mg/dL | – | –
2 | O=C(c1cc(Cl)c(O)c(Cl)c1)N1CCOc2ccccc21 [Reference Example 3, (3,5-dichloro-4-hydroxyphenyl)-(2,3-dihydrobenzo[1,4]oxazin-4-yl)-methanone] | – | good stability | novel peak considered to derive from the decomposition product of compound C
